In BindingDB's records for doi:10.1016/j.bmc.2023.117534 (Zunyi Medical University, 2023):
pIC50: −log10 of the molar value.

Columns and labels:
[1] = Inhibition of wild type EGFR in mouse BaF3 cells assessed as cell growth inhibition measured after 72 hrs by CellTiter-Glo assay
[2] = Inhibition of EGFR L858R/T790M/C797S triple mutant in human NCI-H1975 cells assessed as cell growth inhibition measured after 72 hrs by CellTiter-Glo assay

Row | SMILES | pIC50 [1] | pIC50 [2]
1 | O=C(Nc1nccs1)C(c1ccccc1)N1Cc2ccccc2C1=O (stereo not drawn) | < 5.00 | 
2 | COc1cc2ncnc(NCc3ccc(NC(=O)C(c4ccccc4)N4Cc5ccccc5C4=O)cc3)c2cc1OCCCN1CCOCC1 (stereo not drawn) | 5.84 | 4.91
